Series [1] is described as follows: Toxicity test for single pesticide on zebrafish embryos (96 h semi-static exposure). The format is in vivo, Zebrafish (Danio rerio). The note with it: zebrafish, in vivo; after 96 hours of exposure; single pesticide; embryos exposed from 3 hpf; read-out: LC50 and 95% confidence limits for zebrafish embryos when used alone. On the procedure:
(§1) S1: The embryo culture component 3 is assembled; toxicity exposure is performed after 3 hours post-fertilization (3 hpf) of embryos; after collecting the zebrafish embryos for 3 hours, the abnormal and dead embryos are removed, and the normally divided embryos are picked out under an inverted microscope, and the selected embryos are loaded in into the culture well 34 in an amount of 10 embryos per well; after removing the water as much as possible, 10 mL of single pesticide solution with different concentrations are added to each well in the treatment group separately, and an equal volume of standard dilution water is added to the blank control group and the solvent control group, respectively. Three replicates are set for each treatment group, blank control group and solvent control group, and every 2 wells are served as one replicate, that is, 20 embryos are one replicate. Each test pesticide is set with 5 to 7 concentrations using serial dilution method with a geometrical ratio, and each concentration is set with three repeats.
(§2) S2: The semi-static method is used, that is, the medium in the wells are replaced with fresh pesticide solution every 24 hours, and the dead embryos are picked out in time. When the medium is replaced with the fresh pesticide solution, the top plate 32 is pulled up, the original culture medium flows through the leakage hole 35 into the cavity of the cavity plate 31, and then the original culture medium is poured out together. Then, the top plate 32 is mounted on the cavity plate 31, and the fresh pesticide solution is added to the culture well 34 loaded with embryos.
(§3) S3: After 96 hours of toxicity exposure, the embryo mortality and poisoning symptoms are recorded. Embryo death was characterized by egg coagulation, somite disruption, non-detachment of tail or lack of heartbeat; common symptoms of embryo poisoning include the following deformities: egg coagulation, pericardial edema, yolk sac edema, spine curvature, tail bending, and others (FIG. 5). The mortality M is calculated according to the formula (I),
(§4) In formula (I), D is the number of dead embryos and N is the total number of embryos. DPS statistical analysis software (version number: V15.10) is used to statistically analyze the mortality data of zebrafish embryos with the probabilistic value analysis method, and the 50% lethal concentration LC50 and 95% confidence limits of the fish embryos are calculated.

The next series has as its system zebrafish embryos. The description is as above. The note with it: single pesticide treatment group; 96 h exposure (tetraconazole: high concentration group). In kind it is in vivo, Zebrafish (Danio rerio). As for the experimental part: as §1, §2, §3, §4

SMILES strings stand for the structures. In brackets after ≈: the same amount, converted by molar mass.

On to `FC(F)C(F)(F)OCC(Cn1cncn1)c1ccc(Cl)cc1Cl` (stereo not shown) [tetraconazole], for which the LC50 at 96 h in series [1] amounted to 11 µg/mL (≈ 29.5 µM). Also, the “poisoning symptoms of zebrafish embryos” value with zebrafish embryos was “pericardial edema, yolk sac edema, spine curvature, tail bending, and others were observed”.
In the case of `CN1COCN(Cc2cnc(Cl)s2)/C1=N\[N+](=O)[O-]` [thiamethoxam], the LC50 at 96 h in series [1] was determined as 246 µg/mL (≈ 844 µM). For the same molecule, the “poisoning symptoms of zebrafish embryos” value in the series on zebrafish embryos was “not obvious”.

For orientation: LC50 means the concentration lethal to half of the exposed cells or organisms.

(Values after patent US20210299282A1, “Device for Collecting and Culturing Fish Embryos and Method for Evaluating Combined Toxicity of Thiamethoxam and Tetraconazole” (priority 2020, published 2021).)
